Assay results published in US9714232B2, “Substituted piperazine compounds and methods of use thereof” (Sunshine Lake Pharma Co., Ltd., priority 2013, dated 2017).

Tests used:
human 5-HT1A receptor = human 5-HT1A receptor (Homo sapiens (Human), UniProt P08908); test: Affinity for human 5-HT1A receptor ([3H]8-OH-DPAT binding, HEK-293 cell homogenates); conditions: 0.3 nM [3H]8-OH-DPAT, human HEK-293 cell homogenates, 22° C., 60 minutes; Ki from IC50 by ChengPrusoff equation
Protocol: Human HEK-293 cell homogenates (36 μg protein) were incubated at 22° C. for 60 minutes with 0.3 nM [^3H]8-0H-DPAT (Perkin-Elmer) in the absence or presence of the test compound in a buffer solution containing 50 mM Tris-HCl (pH 7.4), 10 mM MgSO4, 0.5 mM EDTA and 2 μg/ml aprotinine.
The non-specific binding value was determined by incubating the same mixture in the presence of 10 μM 8-OH-DPAT, which was used as the standard reference compound and tested in each experiment at several concentrations to obtain a competition curve.
Following the incubation, the samples were filtered rapidly under vacuum through glass fiber filter (GF/B, Packard) presoaked with 0.3% PEI and rinsed several times with ice-cold 50 mM Tris-HCl using a 96-sample cell harvester (Unifilter, Packard). The filters were dried and the retained radioactivity was measured in a scintillation counter (Topcount, Packard) using a scintillation cocktail (Microscint 0, Packard). The experimental results were expressed as a percent inhibition of the control radioligand specific binding.
Binding assay of [^3H] 8-OH-DPAT (0.3 nM) with 5-HT1A receptor in human HEK-293 cell was tested by scintillation proximity assay of membrane.

[1] = molecular target: serotonin transporter in rat synaptosome (Rattus norvegicus (Rat), UniProt P31652); test: Inhibitory effect on [3H]5-HT uptake in rat synaptosome; assay type: biochemical; conditions: rat brain synaptosomes, 0.1 μCi [3H]5-HT, 37° C., 15 minutes
Protocol: The synaptosomes (150 μg) prepared from a rat brain were incubated at 37° C. for 15 minutes with 0.1 μCi [^3H]5-HT in the absence or presence of the test compound or the reference compound in a buffer solution containing 106.2 mM NaCl, 4.5 mM KCl, 2.25 mM MgSO4, 1.08 mM NaH2PO4, 22.5 mM NaHCO3, 9.9 mM glucose, 9 μM EGTA and 45 μM ascorbic acid (pH 7.4).
The basal control activity was determined by incubating the same mixture at 4° C. for 15 minutes in the presence of 10 μM imipramine to block the uptake of 5-HT, which was taken as the standard reference compound and tested in each experiment at several concentrations to obtain an inhibition curve.
Following the incubation, the samples were filtered rapidly under vacuum through glass fiber filters (GF/B, Packard) and rinsed twice with an ice-cold incubation buffer using a 96-sample cell harvester (Unifilter, Packard) to eliminate free [^3H]5-HT. The filters were dried and the retained radioactivity was measured in a scintillation counter (Topcount, Packard) using a scintillation cocktail (Microscint 0, Packard). The experimental results were expressed as a percent inhibition of the control uptake of [^3H]5-HT.
Inhibition of serotonin transporter in rat synaptosome was measured by the concentrations of [^3H]5-HT.

Chain of serotonin transporter in rat synaptosome (P31652 whole entry): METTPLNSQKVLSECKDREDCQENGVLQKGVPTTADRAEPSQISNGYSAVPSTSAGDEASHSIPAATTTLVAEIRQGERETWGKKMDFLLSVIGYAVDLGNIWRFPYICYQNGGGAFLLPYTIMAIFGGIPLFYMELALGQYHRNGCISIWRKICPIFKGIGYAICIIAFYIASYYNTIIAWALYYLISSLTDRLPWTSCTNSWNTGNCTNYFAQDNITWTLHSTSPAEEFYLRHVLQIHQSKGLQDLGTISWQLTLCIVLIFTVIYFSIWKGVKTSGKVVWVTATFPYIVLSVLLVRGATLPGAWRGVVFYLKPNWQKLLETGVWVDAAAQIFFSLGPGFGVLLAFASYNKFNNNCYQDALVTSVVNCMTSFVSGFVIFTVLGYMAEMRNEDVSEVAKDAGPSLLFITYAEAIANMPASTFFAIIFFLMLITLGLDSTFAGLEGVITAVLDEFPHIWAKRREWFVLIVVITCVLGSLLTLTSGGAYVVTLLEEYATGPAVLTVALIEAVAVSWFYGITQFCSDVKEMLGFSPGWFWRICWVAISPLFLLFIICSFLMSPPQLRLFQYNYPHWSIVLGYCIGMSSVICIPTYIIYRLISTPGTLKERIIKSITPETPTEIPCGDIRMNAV
Chain of human 5-HT1A receptor (P08908 whole entry): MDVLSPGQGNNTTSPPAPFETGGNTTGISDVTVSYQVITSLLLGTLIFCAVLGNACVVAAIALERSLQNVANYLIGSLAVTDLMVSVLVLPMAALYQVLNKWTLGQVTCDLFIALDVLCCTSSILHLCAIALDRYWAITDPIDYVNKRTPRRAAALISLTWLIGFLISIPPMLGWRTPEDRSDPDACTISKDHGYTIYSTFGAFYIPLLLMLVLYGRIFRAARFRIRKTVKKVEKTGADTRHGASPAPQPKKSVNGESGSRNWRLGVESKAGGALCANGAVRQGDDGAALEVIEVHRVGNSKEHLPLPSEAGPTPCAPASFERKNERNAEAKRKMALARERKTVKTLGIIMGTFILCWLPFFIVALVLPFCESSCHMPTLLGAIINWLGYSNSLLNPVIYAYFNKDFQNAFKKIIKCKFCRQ

N#Cc1ccc2[nH]cc(CCCN3CCN(c4ccc(N5CCCNC5=O)cc4)CC3)c2c1 [Example 38, 3-(3-(4-(4-(2-oxotetrahydropyrimidin-1(2H)-yl)phenyl)piperazin-1-yl)propyl)-1H-indole-5-carbonitrile]
Ki (human 5-HT1A receptor): 1.9 nM
IC50 [1]: 1.4 nM

N#Cc1ccc2[nH]cc(CCCN3CCN(c4ccc(N5CCOCC5=O)cc4)CC3)c2c1 [Example 8, 3-(3-(4-(4-(3-oxomorpholino)phenyl)piperazin-1-yl)propyl)-1H-indole-5-carbonitrile]
Ki (human 5-HT1A receptor): 3.2 nM
IC50 [1]: 10 nM

COc1ccn(-c2ccc(N3CCN(CCCCCc4c[nH]c5ccc(C#N)cc45)CC3)cc2)c(=O)c1 [Example 24, 3-(5-(4-(4-(4-methoxy-2-oxopyridin-1(2H)-yl)phenyl)piperazin-1-yl)pentyl)-1H-indole-5-carbonitrile]
Ki (human 5-HT1A receptor): 12 nM
IC50 [1]: 5.5 nM

N#Cc1ccc2[nH]cc(CCCCN3CCN(c4ccc(-n5ccc6ccccc6c5=O)cc4)CC3)c2c1 [Example 29, 3-(4-(4-(4-(1-oxoisoquinolin-2(1H)-yl)phenyl)piperazin-1-yl)butyl)-1H-indole-5-carbonitrile]
IC50 [1]: 10 nM

COc1ccn(-c2ccc(N3CCN(CCCCc4c[nH]c5ccc(C#N)cc45)CC3)cc2)c(=O)c1 [Example 21, 3-(4-(4-(4-(4-methoxy-2-oxopyridin-1(2H)-yl)phenyl)piperazin-1-yl)butyl)-1H-indole-5-carbonitrile]
Ki (human 5-HT1A receptor): 1.2 nM
IC50 [1]: 7.4 nM

COc1ccn(-c2ccc(N3CCN(CCCc4c[nH]c5ccc(C#N)cc45)CC3)cc2)c(=O)c1 [Example 22, 3-(3-(4-(4-(4-methoxy-2-oxopyridin-1(2H)-yl)phenyl)piperazin-1-yl)propyl)-1H-indole-5-carbonitrile]
Ki (human 5-HT1A receptor): 0.61 nM
IC50 [1]: 1.8 nM

N#Cc1ccc2[nH]cc(CCCN3CCN(c4ccc(-n5ccncc5=O)cc4)CC3)c2c1 [Example 36, 3-(3-(4-(4-(2-oxopyrazin-1(2H)-yl)phenyl)piperazin-1-yl)propyl)-1H-indole-5-carbonitrile]
Ki (human 5-HT1A receptor): 3 nM
IC50 [1]: 1.8 nM

N#Cc1ccc2[nH]cc(C(O)CCN3CCN(c4ccc(-n5ccccc5=O)cc4)CC3)c2c1 (stereo not shown) [Example 16, 3-(1-hydroxy-3-(4-(4-(2-oxopyridin-1(2H)-yl)phenyl)piperazin-1-yl)propyl)-1H-indole-5-carbonitrile]
IC50 [1]: 170 nM

O=c1ccccn1-c1ccc(N2CCN(CCCCc3c[nH]c4ccc(F)cc34)CC2)cc1 [Example 10, 1-(4-(4-(4-(5-fluoro-1H-indol-3-yl)butyl)piperazin-1-yl)phenyl)pyridin-2(1H)-one]
Ki (human 5-HT1A receptor): 0.19 nM
IC50 [1]: 1.6 nM

N#Cc1ccc2[nH]cc(CCCCN3CCN(c4ccc(N5CCOCC5=O)cc4)CC3)c2c1 [Example 6, 3-(4-(4-(4-(3-oxomorpholino)phenyl)piperazin-1-yl)butyl)-1H-indole-5-carbonitrile]
Ki (human 5-HT1A receptor): 2.1 nM
IC50 [1]: 2.2 nM

O=C1CCCCN1c1ccc(N2CCN(CCCCc3c[nH]c4ccc(F)cc34)CC2)cc1 [Example 1, 1-(4-(4-(4-(5-fluoro-1H-indol-3-yl)butyl)piperazin-1-yl)phenyl)piperidin-2-one]
Ki (human 5-HT1A receptor): 2.5 nM
IC50 [1]: 4.3 nM

N#Cc1ccc2[nH]cc(CCCCN3CCN(c4ccc(N5CCCNC5=O)cc4)CC3)c2c1 [Example 37, 3-(4-(4-(4-(2-oxotetrahydropyrimidin-1(2H)-yl)phenyl)piperazin-1-yl)butyl)-1H-indole-5-carbonitrile]
Ki (human 5-HT1A receptor): 1.3 nM
IC50 [1]: 1.3 nM

N#Cc1ccc2[nH]cc(CCCN3CCN(c4ccc(-n5ccc6ncccc6c5=O)cc4)CC3)c2c1 [Example 32, 3-(3-(4-(4-(5-oxo-1,6-naphthyridin-6(5H)-yl)phenyl)piperazin-1-yl)propyl)-1H-indole-5-carbonitrile]
Ki (human 5-HT1A receptor): 1.7 nM
IC50 [1]: 0.93 nM

N#Cc1ccc2[nH]cc(CCCN3CCN(c4ccc(-n5ccccc5=O)cc4)CC3)c2c1 [Example 11, 3-(3-(4-(4-(2-oxopyridin-1(2H)-yl)phenyl)piperazin-1-yl)propyl)-1H-indole-5-carbonitrile]
Ki (human 5-HT1A receptor): 1.2 nM
IC50 [1]: 0.98 nM

O=C1COCCN1c1ccc(N2CCN(CCCCc3c[nH]c4ccc(F)cc34)CC2)cc1 [Example 5, 4-(4-(4-(4-(5-fluoro-1H-indol-3-yl)butyl)piperazin-1-yl)phenyl)morpholin-3-one]
Ki (human 5-HT1A receptor): 3.1 nM
IC50 [1]: 6.3 nM

O=C1CCCCN1c1ccc(N2CCN(CCCc3c[nH]c4ccc(F)cc34)CC2)cc1 [Example 3, 1-(4-(4-(3-(5-fluoro-1H-indol-3-yl)propyl)piperazin-1-yl)phenyl)piperidin-2-one]
Ki (human 5-HT1A receptor): 3.2 nM
IC50 [1]: 4.2 nM

O=c1ccccn1-c1ccc(N2CCN(CCCc3c[nH]c4ccc(F)cc34)CC2)cc1 [Example 12, 1-(4-(4-(3-(5-fluoro-1H-indol-3-yl)propyl)piperazin-1-yl)phenyl)pyridin-2(1H)-one]
Ki (human 5-HT1A receptor): 0.87 nM
IC50 [1]: 7.1 nM

N#Cc1ccc2[nH]cc(CCCN3CCN(c4ccc(-n5cc(F)cc(F)c5=O)cc4)CC3)c2c1 [Example 26, 3-(3-(4-(4-(3,5-difluoro-2-oxopyridin-1(2H)-yl)phenyl)piperazin-1-yl)propyl)-1H-indole-5-carbonitrile]
Ki (human 5-HT1A receptor): 0.31 nM
IC50 [1]: 1.3 nM

N#Cc1ccc2[nH]cc(C(O)CCCN3CCN(c4ccc(-n5ccccc5=O)cc4)CC3)c2c1 (stereo not shown) [Example 15, 3-(1-hydroxy-4-(4-(4-(2-oxopyridin-1(2H)-yl)phenyl)piperazin-1-yl)butyl)-1H-indole-5-carbonitrile]
IC50 [1]: 330 nM

N#Cc1ccc2[nH]cc(CCCCN3CCN(c4ccc(-n5cc(F)cc(F)c5=O)cc4)CC3)c2c1 [Example 25, 3-(4-(4-(4-(3,5-difluoro-2-oxopyridin-1(2H)-yl)phenyl)piperazin-1-yl)butyl)-1H-indole-5-carbonitrile]
Ki (human 5-HT1A receptor): 0.18 nM
IC50 [1]: 1.4 nM

N#Cc1ccc2[nH]cc(CCCN3CCN(c4ccc(N5CCCCC5=O)cc4)CC3)c2c1 [Example 4, 3-(3-(4-(4-(2-oxopiperidin-1-yl)phenyl)piperazin-1-yl)propyl)-1H-indole-5-carbonitrile]
Ki (human 5-HT1A receptor): 1.2 nM
IC50 [1]: 8.5 nM

N#Cc1ccc2[nH]cc(CCN3CCN(c4ccc(-n5ccccc5=O)cc4)CC3)c2c1 [Example 13, 3-(2-(4-(4-(2-oxopyridin-1(2H)-yl)phenyl)piperazin-1-yl)ethyl)-1H-indole-5-carbonitrile]
Ki (human 5-HT1A receptor): 54 nM
IC50 [1]: 2.6 nM

N#Cc1ccc2[nH]cc(CCCCCN3CCN(c4ccc(-n5ccccc5=O)cc4)CC3)c2c1 [Example 14, 3-(5-(4-(4-(2-oxopyridin-1(2H)-yl)phenyl)piperazin-1-yl)pentyl)-1H-indole-5-carbonitrile]
Ki (human 5-HT1A receptor): 4.1 nM
IC50 [1]: 1.4 nM

COc1ccn(-c2ccc(N3CCN(CCc4c[nH]c5ccc(C#N)cc45)CC3)cc2)c(=O)c1 [Example 23, 3-(2-(4-(4-(4-methoxy-2-oxopyridin-1(2H)-yl)phenyl)piperazin-1-yl)ethyl)-1H-indole-5-carbonitrile]
IC50 [1]: 12 nM

Cc1ccn(-c2ccc(N3CCN(CCCCc4c[nH]c5ccc(C#N)cc45)CC3)cc2)c(=O)c1 [Example 17, 3-(4-(4-(4-(4-methyl-2-oxopyridin-1(2H)-yl)phenyl)piperazin-1-yl)butyl)-1H-indole-5-carbonitrile]
Ki (human 5-HT1A receptor): 0.48 nM
IC50 [1]: 1.7 nM

N#Cc1ccc2[nH]cc(CCCN3CCN(c4ccc(-n5ccc6occc6c5=O)cc4)CC3)c2c1 [Example 34, 3-(3-(4-(4-(4-oxofuro[3,2-c]pyridin-5 (4H)-yl)phenyl)piperazin-1-yl)propyl)-1H-indole-5-carbonitrile]
Ki (human 5-HT1A receptor): 0.1 nM
IC50 [1]: 4.2 nM

N#Cc1ccc2[nH]cc(CCCN3CCN(c4ccc(-n5ccc6ccccc6c5=O)cc4)CC3)c2c1 [Example 30, 3-(3-(4-(4-(1-oxoisoquinolin-2(1H)-yl)phenyl)piperazin-1-yl)propyl)-1H-indole-5-carbonitrile]
Ki (human 5-HT1A receptor): 3.6 nM
IC50 [1]: 4.3 nM

Cc1ccn(-c2ccc(N3CCN(CCCCCc4c[nH]c5ccc(C#N)cc45)CC3)cc2)c(=O)c1 [Example 20, 3-(5-(4-(4-(4-methyl-2-oxopyridin-1(2H)-yl)phenyl)piperazin-1-yl)pentyl)-1H-indole-5-carbonitrile]
Ki (human 5-HT1A receptor): 4.7 nM
IC50 [1]: 3.6 nM
